Earlier results on 1 compound are cited in article PMC7062412 (Drug Design, Development and Therapy, 2020).

Each structure is given as a SMILES string.

The subject of one data set is ET-1. The note with it: overall animals, isolated organs, cells and subcells.

For the compound `O=C(O)/C=C/c1ccc(O)c(O)c1` [Caffeic Acid, caffeic acid], the “half-life in the body” value is 30 to 60 min. The “antagonistic biological effect on ET-1” value in the data set with ET-1 is on record as “had an antagonistic biological effect on ET-1”.
